Test results published in patent publication US8673852B2, “Methods of treating neuronal disorders using MNTF peptides and analogs thereof” (Genervon Biopharmaceuticals, LLC, priority 2006, dated 2014).
Several values for one entry are separate records, joined by “and”; a condition that tells them apart may be missing. Identical values can stand only once. Like-named read-outs stand apart in the source and are kept apart here. Ends that are not written are not given here.

Legend:
embryonic stem cells = assay: Differentiation of embryonic stem cells into motor neurons in vitro; assay type: cell-based, murine
[1] = test system: stem cell derived motor neurons; assay: Survival of stem cell derived motor neurons; assay type: cell-based; conditions: compared with MNTF 33mer
SH-SY5Y cells = assay: Cell culture model of Parkinson's disease: SH-SY5Y cell viability (MTT) with or without salsolinol; assay type: cell-based, human; conditions: for Viability (% Cells) Mean ± SD: 24 h
Protocol: SH-SY5Y cells were purchased from American Type Culture Collection (Manassas, Va.) and cultured in a complete media containing minimum essential media, Hams F-12 media and Hanks Balanced Salt Solution Gibco-BRL) in a ratio of 2:1:1. The media also contained 10% fetal bovine serum along with penicillin (50 U/ml) and streptomycin ([…]). The cells were cultured in flasks and kept in a humidified incubator containing 5% CO2 in air at 37° C. The media was changed every 2-3 days.
Prior to manipulation, cultures were assigned to different treatment groups based on a randomized block design.
For cell viability experiments, SH-SY5Y cells (0.5×10^5/well) were cultured in a 96-well cell culture plate and treated with (±) SAL (Sigma, St. Louis, Mo.) alone or along with different concentrations of (GM6) (Genervon), with or without Wortmannin (WRT) (Sigma, St. Louis, Mo.), a phosphatidylinositol-3-kinase (PI-3 kinase) inhibitor, for 24 h. Cell viability was determined by Thiazolyl blue (MTT) assay.

[2] = GM6 levels in brain by competitive ELISA after IV injection (blood brain barrier penetration); assay type: in vivo, C57BL/6 mice; conditions: for increase in GM6 in the brain vs vehicle: 4 hours; for level at time molar at 4 h: male, C57BL/6, mouse, WT mice, brain collected 4 hours later, read-out: ELISA MNTF (μM) in the brain
Protocol: (§1) C57BL6 mice were injected with GM6 at the indicated doses and examined for GM6 in the brain. Half of the brain was taken for immunocytochemical analysis for GM6, the other half (brain) was frozen for ELISA analysis.
(§2) Animals were acclimated for 1 week prior to experimentation. The animals were bolus i.v. dosed via tail vein with vehicle or GM6 at 0.2 or 2 mg/kg. […] Vehicle control received saline solution.
To measure GM6 levels in samples using the competitive ELISA kit. Affinity purified rabbit anti-6Mer was coated on ELISA plate at 10 ug/ml in coating buffer. 6Mer-biotin was used at 1 uM (final dilution) in the assay. The known concentrations of GM6 (competitor) were used as reference standards starting from 80 uM and titrating 2-fold down 0.625 uM in the test for establishing standard curve. Concentration of tested samples was estimated from their OD450 observation based on the standard curve.
The brain tissue was prepared in cell lysis buffer containing 100 mM Tris HCl, pH 7.0, containing 2% BSA, 1 M NaCl, 4 mM EDTA, 2% Triton X-100, 0.1% sodium azide and protease inhibitors (Complete™, Mini, Boehringer Mannheim). Homogenates were prepared in 10 volumes of buffer to tissue wet weight. The homogenates were centrifuged for 30 minutes at 14,000×g. The resulting supernatant was used for ELISA with the appropriate volume adjustment.
For the assay, the anti-6Mer pAb was diluted to 10 ug/ml in ELISA coating buffer. The 96-well micro-titer plates were coated with 100 ul/well of the diluted pAb. The plates were covered and kept refrigerated overnight. Next day, the plates were blocked with 200 ul/well TBS with 3% BSA, and kept at RT for 60 min. The plates were washed 3× with TBST (TBS+0.05% Tween 20). For each plate, 10 ml 1 uM 6Mer-biotin and make 1 ml standard mix was prepared: 1 uM 6Mer-biotin with 80 uM 6Mer. For each plate, lanes 1 and 2 were used for the standard curve. 1 uM 6Mer-biotin (100 μl) was added to all wells except A1 and A2 and 200 ul/well of standard mix was added to A1 and A2. A serial 2-fold dilution from wells A1 and A2 down to wells H1 and H2 was performed by taking out 100 ul sample from each well and mix it with next well—pipetting up and down at least 8 times. The extra 100 ul at the final wells (H1 and H2) was discarded. Test samples (brain homogenate) was diluted in Ab dilution buffer and mixed at a 1:50 with the 1 uM 6Mer-biotin. The plate was mixed on a shaker at 400 rpm for 2 hours at RT. The samples were washed 6× with TBST. Streptavidin-HRP (10 ml per plate) solution was prepared by diluting Streptavidin-HRP to 1:2000 in Ab dilution buffer. The plate was mixed on the shaker for another 1 hour at RT. The samples were wash 8× with TBST. […] The reaction was stopped with 50 ul 1M HCl. and read OD450 immediately.

[3] = test system: permanent middle cerebral artery occlusion (MCAO) rat model; assay: Permanent middle cerebral artery occlusion (MCAO) rat model, 28 days; conditions: 2.5, 10 or 20 mg/kg IV
[4] = test system: primary rat neuronal cell cultures; assay type: cell-based
Protocol: Sprague Dawley rat cortical neuronal cells were isolated from 18-day-old embryonic fetuses and growth in culture for 12 days. Post mortem CSF from control and various neurological disorders donors were applied to the cultures and examined for neuronal viability. In addition, MNTF was added to the cultures to protect the cells from injury.
Neuronal cultures were prepared from 18-day-old Sprague-Dawley rat fetuses. Fetal rat midbrains were dissected and incubated for 15 min in a solution of 2 mg/mL trypsin in Ca2+- and Mg2+-free Hanks' balanced salt solution (HBSS) buffered with 10 mM HEPES (GIBCO Life Technologies, Paisley, Scotland). The tissue was then exposed for 2 min to soybean trypsin inhibitor (1 mg/mL in HBSS) and rinsed three times in HBSS. Cells were dissociated by trituration and distributed to 96-well or 24-well poly-L-lysine-coated plastic culture plates (Costar, Cambridge, Mass.). Initial plating densities were approximately 160-180 cells/mm2. At the time of plating, each well contained 0.2 ml of DMEM/F12 medium (GIBCO Life Technologies, NY) supplemented with 100 mL/L fetal bovine serum (Sigma Chemicals, St. Louis, Mo.). After a 24-hr period, the DMEM/F12 medium was replaced with 0.15 mL of 2% v/v B-27 Neurobasal medium supplemented with 2 mM GlutaMAX and 0.5% w/v D-(+) glucose (GIBCO Life Technologies). Twice a week, two-thirds of the Neurobasal medium was replaced with freshly prepared medium of the same composition. Cultures were used for neurotoxicity experiments after 12 days in culture. The research investigators at NTS were unaware of the material prior to, during the study and when the preliminary data were presented to the Sponsor (GB).
UCLA Human Brain and Spinal Fluid Resource Center (Los Angeles, Calif.) supplied the post mortem CSF samples from five donors of each of the nine study groups along with identification and clinical diagnosis and neuropathology diagnosis documents. Samples were stored at −170° C. prior to shipment and were shipped with dry ice. The study groups were control (no neurological disorder), Amyotrophic Lateral Sclerosis (ALS), Neuropathy (NP), Multiple Sclerosis (MS), Alzheimer's Disease (AD), Batten's Disease (BD), Huntington's Disease (HD), Parkinson's Disease (PD), and Cerebral Ischemia (stroke).
To test the effects of CSF on neuronal cell survival, CSF was added to the cultures in Neurobasal medium containing 10% CSF. CSF was added to the cultures and examined after 48 hours. Images of cultures were taken and then the cultures were subjected to MTT assay (see below) to determine the % cell death. Additional cultures were incubated with MNTF (100 nM) added to the cultures 2 hours prior to addition of CSF.
MTT assay. Viability of primary neurons was determined as described. The relative number of surviving cells was determined in triplicate using the value for cells stimulated with vehicles as 100%. Cell survival was assessed on the 2nd day of treatment via an MTT assay. MTT (3-[4,5-dimethylthiazol-2-yl]-2,5-diphenyltetrazolium bromide) was diluted to […] in Hanks' solution (Biochrom) and added to cultures for two hours at 37° C. The MTT formazan product was released from the cells by adding dimethylsulfoxide, and measured at 570 nm in an Ultrospect III spectrophotometer (Pharmacia). Relative survival in comparison to untreated controls could then be determined.

[5] = test system: middle cerebral artery occlusion (MCAO) mouse model; assay: MCAO mouse model, 1 hour ischemia and 14 days reperfusion, time of first dose varied; assay type: in vivo, C57BL/6 mice; conditions: 5 mg/kg IV
Protocol: (§3) The MABP and heart rate was recorded using a Visitech System blood pressure monitor.
Formulation of GM602 (CS Bio Co., Menlo Park, Calif., CS1507, GMP013, lot C811) was performed by NTS as a stock solution by reconstituting GM602 with (100%) saline that was stored at 4° C. Vehicle control received saline solution. The bolus IV injections via tail with GM602 was initiated at times of 0, 3, 6, 12 and 24 hours after the start of reperfusion and subsequently every day for 3 days following injury.
(§4) This study involved a transient model of ischemia. […] After the nylon suture was in place for 1 hour, it was pulled back into the ECA and the incision closed.
. […] The brains were removed and chilled for 15 minutes at −20° C. before being placed in a Rodent Brain Matrix. Coronal sections (1-mm thickness) were prepared and subjected to 2% triphenyltetrazolium chloride (TTC) staining at 37° C. Seven serial one-mm thick coronal sections through the rostral to caudal extent of the infarction were obtained from each brain, beginning two-mm from the frontal pole. […] The infarct area in each section was determined with a computer-assisted image analysis system, consisting of a Power Macintosh computer equipped with a Quick Capture frame grabber card, Hitachi CCD camera mounted on an Olympus microscope and camera stand. […] The images were captured and the total area of damage determined over the seven sections.

[6] = Immunocytochemical analysis of brain for GM6 with anti-6mer antibody; assay type: in vivo, C57BL/6 mice; conditions: 0.2 or 2 mg/kg IV
Protocol: as §1, §2
The immunocytochemical stained area in each section was determined with a computer-assisted image analysis system, consisting of a Power Macintosh computer equipped with a Quick Capture frame grabber card, Hitachi CCD camera mounted on an Olympus microscope and camera stand. NIH Image Analysis Software, v. 1.55 was used. The images were captured and the total area of GM6 peptide was determined over the ten sections.

[7] = test system: middle cerebral artery occlusion (MCAO) mouse model; assay: Middle cerebral artery occlusion (MCAO) mouse model, 1 hour ischemia and 24 hours reperfusion; assay type: in vivo, C57BL/6 mice; conditions: 1 or 5 mg/kg IV single dose
Protocol: as §3
All animals were subjected to 1.0 h ischemia followed by 24 h reperfusion. […] Vehicle control received saline solution.
as §4
. The brains were transcardially perfused with 4 degree C., 10% phosphate-buffered saline (PBS). The brains were removed and chilled for 15 minutes at −20 degree C. before being placed in a Rodent Brain Matrix. Coronal sections (1-mm thickness) were prepared and subjected to 2% triphenyltetrazolium chloride (TTC) staining at 37 degree C. Seven serial one-mm thick coronal sections through the rostral to caudal extent of the infarction were obtained from each brain, beginning two-mm from the frontal pole. The TTC stained sections were placed in 10% neutral buffered formalin and kept in darkness at 4° C. for at least 24 hours. The infarct area in each section was determined with a computer-assisted image analysis system, consisting of a Power Macintosh computer equipped with a Quick Capture frame grabber card, Hitachi CCD camera mounted on an Olympus microscope and camera stand. NIH Image Analysis Software, v. 1.55 was used. The images were captured and the total area of damage determined over the seven sections.

Safety in animal studies = assay type: in vivo; conditions: over 1000 Sprague Dawley rats and 15 of both wobbler mice and normal littermates

LGTFWGDTLNCWMLSAFSRYARCLAEGHDGPTQ (LGTFWGDTLNCWMLSAFSRYARCLAEGHDGPTQ) [33-mer]
differentiation of ES cells into motor neurons (embryonic stem cells; in conjunction with a low concentration of RA): induced differentiation

MLSAFSRYAR [MNTF 10mer]
concentrations at which at least as effective as the full-length MNTF 33mer at stimulating differentiation of embryonic stem cells into motor neurons (embryonic stem cells; in vitro): ≥ 0.01 µg/mL | enhancing the survival of stem cell derived motor neurons [1]: nearly as effective as the MNTF 33mer

C[C@@H]1NCCc2cc(O)c(O)cc21 [Salsolinol, reference compound]
Viability (% Cells) Mean ± SD (SH-SY5Y cells; Salsolinol 100 μM alone, MTT): 36.48 ± 12.78% | Viability (% Cells) Mean ± SD (SH-SY5Y cells; Salsolinol 100 μM alone, MTT, listed as SAL): 36.5% | decrease in the number of cells (SH-SY5Y cells; salsolinol 100 μM, 24 hour treatment): 63.7%

FSRYAR [GM6, FSRYAR]
increase in GM6 in the brain vs vehicle ([2]; 0.2 mg/kg IV bolus): 400% | increase in GM6 in the brain vs vehicle ([2]; 2 mg/kg IV bolus): 3000% | level at time molar at 4 h ([2]; 0.2 mg/kg IV bolus): 1.76 µM | level at time molar at 4 h ([2]; 2 mg/kg IV bolus): 12.9 µM | changes in HR, BP, pO2, pCO2, or pH [3]: no changes | % increase (↑) in cell survival ([4]; AD CSF + 100 nM MNTF vs AD CSF): 191% | % increase (↑) in cell survival ([4]; ALS CSF + 100 nM MNTF vs ALS CSF): 175% | % increase (↑) in cell survival ([4]; HD CSF + 100 nM MNTF vs HD CSF): 271% | % increase (↑) in cell survival ([4]; MS CSF + 100 nM MNTF vs MS CSF): 246% | % increase (↑) in cell survival ([4]; PD CSF + 100 nM MNTF vs PD CSF): 198% | % increase (↑) in cell survival ([4]; Stroke CSF + 100 nM MNTF vs Stroke CSF): 205% | Viability (% Cells) Mean ± SD (SH-SY5Y cells; GM6 0.1 mg/ml, no salsolinol, MTT): 101.2 ± 7.260% | Viability (% Cells) Mean ± SD (SH-SY5Y cells; GM6 1 mg/ml, no salsolinol, MTT): 108.0 ± 8.249% | Viability (% Cells) Mean ± SD (SH-SY5Y cells; GM6 10 mg/ml + WRT (10 μM), no salsolinol): 93.81 ± 9.246% | Viability (% Cells) Mean ± SD (SH-SY5Y cells; GM6 10 mg/ml, no salsolinol, MTT): 119.9 ± 14.01% | Viability (% Cells) Mean ± SD (SH-SY5Y cells; Salsolinol 100 μM + GM6 0.1 mg/ml): 66% and 65.85 ± 10.80% | Viability (% Cells) Mean ± SD (SH-SY5Y cells; Salsolinol 100 μM + GM6 1 mg/ml): 85% and 85.19 ± 10.18% | Viability (% Cells) Mean ± SD (SH-SY5Y cells; Salsolinol 100 μM + GM6 10 mg/ml + WRT (10 μM)): 41.35 ± 10.79% | Viability (% Cells) Mean ± SD (SH-SY5Y cells; Salsolinol 100 μM + GM6 10 mg/ml): 95% and 95.57 ± 8.328% | changes in CBF, HR, BP, pO2, pCO2, or pH [5]: no changes | immunoreactivity for GM6 in brain tissue [6]: No immunoreactivity was detected | changes in HR, BP, pO2, pCO2, or pH [7]: no changes | safety problems in animal studies (Safety in animal studies): No safety problems were identified
